{"source": "patent US5731007A", "about": "“Pharmaceutical composition for skin diseases” (Yungjin Pharmaceutical Co., Ltd., priority 1994, dated 1998)", "origin": "cited, not measured here", "system": "gram positive and negative bacteria", "conditions": "including strains resistant to antibiotics such as kanamycin", "note": "Entries after “also recorded” stand apart in the source; their conditions may differ. Counter-ions that a name gives are not always drawn.", "data": [{"smiles": "CNC[C@@H]1CC[C@@H](N)[C@@H](O[C@H]2[C@H](O)[C@@H](O[C@H]3OC[C@](C)(O)[C@H](NC)[C@H]3O)[C@H](N)C[C@@H]2N)O1", "note": "[Micronomicin sulfate, micronomicin sulfate]", "values": [{"measurement": "antibacterial activity", "value": "wide antibacterial spectrum against both gram positive and negative bacteria; also recorded: effective bacteriocidal activity against infections by strains resistant to various antibiotics such as kanamycin"}]}]}
